This note sets out measurements from article PMC9488896, “Hydroxamic Acid-Modified Peptide Library Provides Insights into the Molecular Basis for the Substrate Selectivity of HDAC Corepressor Complexes” (ACS Chemical Biology, 2022).

Common to all, as to type: biochemical
Assay [1] deals with T1, HDAC1/MTA1(aa: 162–546)/RBBP4 core NuRD complex (HMR) (Homo sapiens, UniProt Q09028+Q13330+Q13547).
T1 construct: made in house; host or cells: HEK293F
The assay is described as follows: Boc-Lys HDAC inhibition assay. The conditions noted are these: 50 nM complex, 20 min preincubation rt, 100 μM Boc-(Ac)Lys-AMC, 37 °C 30 min, technical replicates N = 2. Here is the method:
(§1) Inhibition assays with various peptide inhibitors were performed using a fluorescence-based assay. The inhibitor peptides were initially dissolved in 5% dimethyl sulfoxide (DMSO) at a stock concentration of 25 mM before being further diluted in the HDAC assay buffer (50 mM Tris/HCl, pH 7.5, 150 mM NaCl). Serial dilutions (1:3) of the inhibitor were prepared, starting at a concentration of 500 μM. HDAC complexes were diluted to a final concentration of 50 nM and incubated with the inhibitor for 20 min at rt. The Boc-(Ac)Lys-AMC substrate was added at a final concentration of 100 μM The final volume of the reaction was 50 μL. The reaction was incubated at 37 °C, 150 rpm, for 30 min, before a developer (50 mM Tris, pH 7.5, 100 mM NaCl, 10 mg/mL trypsin) was added. The reaction was incubated with the developer for 10 min before being measured (PerkinElmer, 2030 multilabel reader, VICTOR X5, excitation 335 nm, emission 460 nm). The absorbance of the buffer as the blank control was subtracted from the HDAC activity, and IC50 calculations were performed using the nonlinear regression log(inhibitor) vs response equation Y = bottom + (top – bottom)/(1+10^(X–Log IC50)) in Graphpad Prism 9.

In assay [2] the target is T2, CoREST complex (Homo sapiens, UniProt Q13547+Q9UKL0).
T2 construct: made in house; host or cells: HEK293F
Description: Boc-Lys HDAC inhibition assay. As to conditions: HDAC complexes tables; 50 nM complex, 100 μM Boc-(Ac)Lys-AMC, 37 °C 30 min; technical replicates N = 2.
Description: (§2) Finally, we directed our attention toward assessing how the results from the experiments with HMR would be common to the other known class I HDAC corepressor complexes. RERE, MIER1, CoREST, HMR, MiDAC, Sin3A, and SMRT were expressed and purified, and the concentrations were normalized based on the concentration of HDAC1 or HDAC3 (Figure 4A). We determined the potency of H3(23–29)K27Hd 12 and H4(12–18)K16Hd 16 against RERE, MIER1, CoREST, NuRD, MiDAC, Sin3A, and SMRT (Figure 4B). In addition, we repeated the H3(23–29)K27Hd alanine scan experiment for each of these complexes to assess whether or not the importance of Lys23 for maintaining potency against HMR was replicated across the other complexes (Figure 4C).
as §1

Assay [3] has as its target T3, MIER1 complex (Homo sapiens, UniProt Q13547+Q8N108).
T3 construct: made in house; host or cells: HEK293F
The assay is described as follows: Boc-Lys HDAC inhibition assay. As to conditions: HDAC complexes tables; 50 nM complex, 100 μM Boc-(Ac)Lys-AMC, 37 °C 30 min; technical replicates N = 2.
Description: as §2, §1

For assay [4], the target named is T4, MiDAC complex (Homo sapiens, UniProt Q13547+Q6PJG2+Q9H147).
T4 construct: made in house; host or cells: HEK293F
The assay is described as follows: Boc-Lys HDAC inhibition assay. The conditions noted are these: HDAC complexes tables; 50 nM complex, 100 μM Boc-(Ac)Lys-AMC, 37 °C 30 min; technical replicates N = 2.
Description: as §2, §1

Assay [5] has as its target T5, RERE complex (Homo sapiens, UniProt Q13547+Q9P2R6).
T5 construct: made in house; host or cells: HEK293F
The assay is described as follows: Boc-Lys HDAC inhibition assay. As to conditions: HDAC complexes tables; 50 nM complex, 100 μM Boc-(Ac)Lys-AMC, 37 °C 30 min; technical replicates N = 2.
Description: as §2, §1

Assay [6] deals with T6, SMRT complex (HDAC3) (Homo sapiens, UniProt O15379).
T6 construct: made in house; host or cells: HEK293F
Description: Boc-Lys HDAC inhibition assay. As to conditions: HDAC complexes tables; 50 nM complex, 100 μM Boc-(Ac)Lys-AMC, 37 °C 30 min; technical replicates N = 2.
Description: as §2, §1

Assay [7] has as its target T1, HDAC1/MTA1(aa: 162–546)/RBBP4 core NuRD complex (HMR). The assay is described as follows: Caliper deacetylation assay (rate-of-turnover of substrate peptides). As to conditions: 125 nM HMR, 2 μM peptide; for Initial Rate of HMR against histone peptides: Rate (% conversion min-1): 50 mM Tris/HCl pH 7.5, 50 mM NaCl, 5% glycerol, linear fit of first 8 min, Caliper EZ Reader II, technical replicates N = 2. The protocol:
The acetyl-lysine-containing library (compounds 1–8) was assessed for the initial rate at which they were deacetylated by the HMR complex (Figure 2A).
Reactions (30 μL) contained 125 nM HMR and 2 μM fluorescein-labeled peptides (peptides 1–8) in 50 mM Tris/HCl, pH 7.5, 50 mM NaCl, and 5% glycerol. The deacetylase reaction was recorded over a 30 min period, every 90 s, using a Caliper EZ Reader II System (Caliper Life Sciences, http://www.caliperls.com). The initial rates were calculated using the formula Y = Y-intercept + slope × X during the first 8 min of the reaction using GraphPad Prism 9.

The mark [8] stands for this setting: inhibitor library experiment, fluorescence, read-out: IC50 of HMR against histone peptide library.
The mark [9] stands for this setting: alanine scan / H4K12Hd experiments, read-out: IC50 of HMR against H3 K27Hd, H4 K16Hd and H4K12Hd peptides.

Where two headings read alike, the source gives them in different places. Residues, ends and D or L forms follow the SMILES beside them. No end group written: not given here.

T1 sequence (Q13547 whole entry, species assumed): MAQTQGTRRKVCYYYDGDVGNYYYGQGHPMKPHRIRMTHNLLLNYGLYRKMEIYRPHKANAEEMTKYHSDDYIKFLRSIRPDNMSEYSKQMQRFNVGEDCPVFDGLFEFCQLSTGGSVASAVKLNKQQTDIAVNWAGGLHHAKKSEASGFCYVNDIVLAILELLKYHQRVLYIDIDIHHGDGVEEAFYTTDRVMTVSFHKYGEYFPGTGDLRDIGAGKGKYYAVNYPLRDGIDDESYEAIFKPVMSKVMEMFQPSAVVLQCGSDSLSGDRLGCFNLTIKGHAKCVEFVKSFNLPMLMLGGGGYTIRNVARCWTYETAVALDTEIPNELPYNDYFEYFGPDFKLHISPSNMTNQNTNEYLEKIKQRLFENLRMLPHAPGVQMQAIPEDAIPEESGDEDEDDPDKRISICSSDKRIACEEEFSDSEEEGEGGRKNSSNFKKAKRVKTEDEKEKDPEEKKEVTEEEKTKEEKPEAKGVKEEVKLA
T1 sequence (Q13330 162-546 partner limits assumed, species assumed): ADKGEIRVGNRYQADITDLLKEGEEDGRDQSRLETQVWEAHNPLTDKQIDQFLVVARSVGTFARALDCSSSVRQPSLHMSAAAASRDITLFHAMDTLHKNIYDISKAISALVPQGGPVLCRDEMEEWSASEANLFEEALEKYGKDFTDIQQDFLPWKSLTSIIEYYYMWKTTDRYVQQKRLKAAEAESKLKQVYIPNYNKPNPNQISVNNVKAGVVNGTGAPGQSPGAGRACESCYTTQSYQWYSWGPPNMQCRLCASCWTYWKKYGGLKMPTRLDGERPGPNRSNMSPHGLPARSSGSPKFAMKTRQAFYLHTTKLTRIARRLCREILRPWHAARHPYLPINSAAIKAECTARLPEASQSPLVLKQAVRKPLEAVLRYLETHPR
T1 sequence (Q09028 whole entry partner, species assumed): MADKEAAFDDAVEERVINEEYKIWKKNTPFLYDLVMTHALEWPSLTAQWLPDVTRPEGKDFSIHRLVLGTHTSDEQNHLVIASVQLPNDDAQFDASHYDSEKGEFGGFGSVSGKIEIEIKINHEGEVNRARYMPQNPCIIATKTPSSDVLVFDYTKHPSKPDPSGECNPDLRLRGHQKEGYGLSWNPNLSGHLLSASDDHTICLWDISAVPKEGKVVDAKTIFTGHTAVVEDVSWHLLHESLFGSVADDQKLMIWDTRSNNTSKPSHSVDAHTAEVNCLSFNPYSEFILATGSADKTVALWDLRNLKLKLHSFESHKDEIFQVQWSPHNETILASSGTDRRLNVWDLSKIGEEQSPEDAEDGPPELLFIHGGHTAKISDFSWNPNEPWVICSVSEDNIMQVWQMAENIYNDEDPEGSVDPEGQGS
T6 sequence (O15379 whole entry, species assumed, one chain of several): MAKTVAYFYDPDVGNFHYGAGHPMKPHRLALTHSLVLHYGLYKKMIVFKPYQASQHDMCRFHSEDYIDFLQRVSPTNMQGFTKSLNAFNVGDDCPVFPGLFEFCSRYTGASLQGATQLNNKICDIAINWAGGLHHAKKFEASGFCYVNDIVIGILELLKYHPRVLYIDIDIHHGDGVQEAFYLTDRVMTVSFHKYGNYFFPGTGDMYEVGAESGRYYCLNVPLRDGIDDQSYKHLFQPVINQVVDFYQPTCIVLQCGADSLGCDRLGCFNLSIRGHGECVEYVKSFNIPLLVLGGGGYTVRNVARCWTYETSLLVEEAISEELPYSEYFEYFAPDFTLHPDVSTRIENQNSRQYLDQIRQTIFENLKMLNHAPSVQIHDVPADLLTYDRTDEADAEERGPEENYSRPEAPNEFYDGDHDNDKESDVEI
T5 sequence (Q13547 whole entry): as the sequence (Q13547 whole entry, species assumed) above
T5 sequence (Q9P2R6 whole entry partner): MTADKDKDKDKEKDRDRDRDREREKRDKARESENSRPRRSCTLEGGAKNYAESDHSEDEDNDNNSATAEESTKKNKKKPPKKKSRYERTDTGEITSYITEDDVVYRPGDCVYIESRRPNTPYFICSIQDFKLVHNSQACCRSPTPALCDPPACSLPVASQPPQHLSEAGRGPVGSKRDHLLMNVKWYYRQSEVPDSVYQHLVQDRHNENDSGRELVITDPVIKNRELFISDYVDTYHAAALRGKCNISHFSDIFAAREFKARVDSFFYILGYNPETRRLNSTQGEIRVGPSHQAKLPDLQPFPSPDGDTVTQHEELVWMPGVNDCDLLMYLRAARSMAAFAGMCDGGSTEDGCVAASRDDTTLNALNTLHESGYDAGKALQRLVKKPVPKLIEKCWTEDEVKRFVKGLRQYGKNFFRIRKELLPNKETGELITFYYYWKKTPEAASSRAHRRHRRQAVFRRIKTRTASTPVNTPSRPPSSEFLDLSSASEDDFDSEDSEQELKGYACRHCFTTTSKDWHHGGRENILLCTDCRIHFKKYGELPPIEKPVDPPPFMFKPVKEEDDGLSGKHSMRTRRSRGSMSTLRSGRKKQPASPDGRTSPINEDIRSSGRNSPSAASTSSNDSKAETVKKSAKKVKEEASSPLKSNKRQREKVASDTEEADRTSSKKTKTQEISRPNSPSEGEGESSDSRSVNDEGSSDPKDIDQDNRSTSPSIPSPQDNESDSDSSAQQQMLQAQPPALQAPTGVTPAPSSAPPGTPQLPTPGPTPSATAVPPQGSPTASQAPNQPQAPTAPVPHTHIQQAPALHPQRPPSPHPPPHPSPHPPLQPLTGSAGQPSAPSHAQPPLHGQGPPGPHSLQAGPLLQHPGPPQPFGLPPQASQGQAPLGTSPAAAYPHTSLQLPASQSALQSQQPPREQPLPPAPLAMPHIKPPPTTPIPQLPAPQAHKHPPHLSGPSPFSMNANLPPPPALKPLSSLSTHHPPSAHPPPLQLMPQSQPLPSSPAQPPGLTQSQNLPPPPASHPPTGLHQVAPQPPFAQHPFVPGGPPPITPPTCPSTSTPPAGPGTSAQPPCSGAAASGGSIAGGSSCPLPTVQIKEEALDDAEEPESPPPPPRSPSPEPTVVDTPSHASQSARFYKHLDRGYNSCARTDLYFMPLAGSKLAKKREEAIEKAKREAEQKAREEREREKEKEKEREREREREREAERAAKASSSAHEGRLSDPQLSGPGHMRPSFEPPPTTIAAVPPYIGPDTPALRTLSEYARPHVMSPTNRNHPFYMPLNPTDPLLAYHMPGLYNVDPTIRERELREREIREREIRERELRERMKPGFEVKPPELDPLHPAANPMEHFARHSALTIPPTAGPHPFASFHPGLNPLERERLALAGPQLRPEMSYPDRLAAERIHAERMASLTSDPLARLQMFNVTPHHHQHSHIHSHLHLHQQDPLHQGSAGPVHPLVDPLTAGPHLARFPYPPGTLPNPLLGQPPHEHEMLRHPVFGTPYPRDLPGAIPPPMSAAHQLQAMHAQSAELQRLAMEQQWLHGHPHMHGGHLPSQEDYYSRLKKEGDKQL
T4 sequence (Q13547 whole entry): as the sequence (Q13547 whole entry, species assumed) above
T4 sequence (Q6PJG2 628-887 partner limits assumed): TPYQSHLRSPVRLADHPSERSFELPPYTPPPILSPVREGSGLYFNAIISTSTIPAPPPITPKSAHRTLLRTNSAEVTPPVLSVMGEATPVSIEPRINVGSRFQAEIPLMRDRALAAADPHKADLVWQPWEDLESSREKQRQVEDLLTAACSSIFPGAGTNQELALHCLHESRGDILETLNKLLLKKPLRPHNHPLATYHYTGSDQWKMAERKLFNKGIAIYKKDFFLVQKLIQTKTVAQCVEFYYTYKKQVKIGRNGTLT
T4 sequence (Q9H147 whole entry partner): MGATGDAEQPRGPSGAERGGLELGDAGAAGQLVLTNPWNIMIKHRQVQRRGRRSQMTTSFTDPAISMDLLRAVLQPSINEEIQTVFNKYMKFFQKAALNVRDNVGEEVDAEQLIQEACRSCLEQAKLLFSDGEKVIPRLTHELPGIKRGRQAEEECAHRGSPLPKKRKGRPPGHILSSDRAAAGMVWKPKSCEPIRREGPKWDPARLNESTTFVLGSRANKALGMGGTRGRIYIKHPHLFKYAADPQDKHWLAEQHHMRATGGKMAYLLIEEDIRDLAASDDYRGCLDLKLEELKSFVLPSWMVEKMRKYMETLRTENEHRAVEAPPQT
T2 sequence (Q13547 whole entry, other chains not shown): as the sequence (Q13547 whole entry, species assumed) above
T2 sequence (Q9UKL0 86-485 partner limits assumed, other chains not shown): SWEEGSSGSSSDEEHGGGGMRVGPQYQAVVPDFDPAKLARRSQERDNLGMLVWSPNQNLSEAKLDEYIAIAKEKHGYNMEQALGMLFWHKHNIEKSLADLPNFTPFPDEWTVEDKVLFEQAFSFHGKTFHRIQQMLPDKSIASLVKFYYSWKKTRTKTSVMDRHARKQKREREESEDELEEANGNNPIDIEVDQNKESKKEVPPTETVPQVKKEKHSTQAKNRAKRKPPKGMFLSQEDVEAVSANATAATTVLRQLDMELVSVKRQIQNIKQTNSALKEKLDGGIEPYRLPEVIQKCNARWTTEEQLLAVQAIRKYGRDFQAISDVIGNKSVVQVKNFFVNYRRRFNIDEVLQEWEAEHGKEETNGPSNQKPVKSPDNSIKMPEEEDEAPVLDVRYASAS
T3 sequence (Q13547 whole entry): as the sequence (Q13547 whole entry, species assumed) above
T3 sequence (Q8N108 whole entry partner): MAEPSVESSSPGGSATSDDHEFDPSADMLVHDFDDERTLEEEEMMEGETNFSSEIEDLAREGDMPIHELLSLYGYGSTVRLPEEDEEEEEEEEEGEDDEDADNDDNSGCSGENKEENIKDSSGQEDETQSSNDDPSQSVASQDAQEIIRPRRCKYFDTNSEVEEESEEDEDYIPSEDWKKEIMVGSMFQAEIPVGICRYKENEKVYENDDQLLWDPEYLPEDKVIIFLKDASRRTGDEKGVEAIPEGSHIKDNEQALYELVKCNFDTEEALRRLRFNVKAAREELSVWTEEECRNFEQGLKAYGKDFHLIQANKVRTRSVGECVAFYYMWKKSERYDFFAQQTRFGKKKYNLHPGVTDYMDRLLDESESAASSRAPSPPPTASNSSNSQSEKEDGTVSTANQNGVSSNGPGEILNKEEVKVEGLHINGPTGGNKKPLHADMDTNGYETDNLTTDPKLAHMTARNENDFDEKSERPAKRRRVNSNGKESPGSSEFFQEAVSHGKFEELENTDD

In general, IC50 refers to the point on the concentration scale where inhibition reaches its midpoint. On to `CC(=O)N[C@@H](C)C(=O)N[C@@H](CCCNC(=N)N)C(=O)N[C@H](C(=O)N[C@@H](CCCCCC(=O)NO)C(=O)N[C@@H](CCC(N)=O)C(=O)N[C@H](C(=O)N[C@@H](C)C(N)=O)[C@@H](C)O)[C@@H](C)O` [compound 9, H3 (1-7) K4Hd] (HELM PEPTIDE1{[ac].A.R.T.[O=C([C@H](CCCCCC(=O)[*:3])N[*:1])[*:2]].Q.T.A.[am]}|CHEM1{[ON[*:1]]}$PEPTIDE1,CHEM1,5:R3-1:R1$$$V2.0), for which, in assay [1] (setting [8]), the IC50 was 0.333 µM.

With `CC(=O)N[C@H](C(=O)NCC(=O)NCC(=O)N[C@@H](CCCCCC(=O)NO)C(=O)N[C@@H](C)C(=O)N1CCC[C@H]1C(=O)N[C@@H](CCCNC(=N)N)C(N)=O)[C@@H](C)O` [compound 11, H3 (11-17) K14Hd] (HELM PEPTIDE1{[ac].T.G.G.[O=C([C@H](CCCCCC(=O)[*:3])N[*:1])[*:2]].A.P.R.[am]}|CHEM1{[ON[*:1]]}$PEPTIDE1,CHEM1,5:R3-1:R1$$$V2.0), in assay [1] (setting [8]), the IC50 was 0.886 µM.

For `CC(=O)N[C@@H](CO)C(=O)NCC(=O)N[C@@H](CCCNC(=N)N)C(=O)NCC(=O)N[C@@H](CCCCCC(=O)NO)C(=O)NCC(=O)NCC(=O)N[C@@H](CCCCN)C(N)=O` [compound 13, H4 (1-8) K5Hd] (HELM PEPTIDE1{[ac].S.G.R.G.[O=C([C@H](CCCCCC(=O)[*:3])N[*:1])[*:2]].G.G.K.[am]}|CHEM1{[ON[*:1]]}$PEPTIDE1,CHEM1,6:R3-1:R1$$$V2.0), the IC50 in assay [1] (setting [8]) amounted to 0.633 µM. For `CC(=O)NCC(=O)N[C@@H](CCCCN)C(=O)NCC(=O)NCC(=O)N[C@@H](CCCCCC(=O)NO)C(=O)NCC(=O)N[C@@H](CC(C)C)C(N)=O` [compound 14, H4 (4-10) K8Hd] (HELM PEPTIDE1{[ac].G.K.G.G.[O=C([C@H](CCCCCC(=O)[*:3])N[*:1])[*:2]].G.L.[am]}|CHEM1{[ON[*:1]]}$PEPTIDE1,CHEM1,6:R3-1:R1$$$V2.0), the IC50 in assay [1] (setting [8]) came out at 0.431 µM. Take `CC(=O)N[C@@H](CCCCN)C(=O)N[C@@H](C)C(=O)N[C@@H](C)C(=O)N[C@@H](C)C(=O)N[C@@H](CCCCCC(=O)NO)C(=O)N[C@@H](CO)C(=O)N[C@@H](C)C(N)=O` [compound 22, H3(23–29)R26A K27Hd] (HELM PEPTIDE1{[ac].K.A.A.A.[O=C([C@H](CCCCCC(=O)[*:3])N[*:1])[*:2]].S.A.[am]}|CHEM1{[ON[*:1]]}$PEPTIDE1,CHEM1,6:R3-1:R1$$$V2.0): the IC50 in assay [1] (setting [9]) worked out at 0.172 µM; in assay [2], 0.287 µM; in assay [3] it was 0.334 µM; in assay [4] it was 0.203 µM; in assay [5] it was 0.464 µM; in assay [6], 0.11 µM. Consider `CC(=O)N[C@@H](C)C(=O)NCC(=O)NCC(=O)N[C@@H](C)C(=O)N[C@@H](CCCCCC(=O)NO)C(=O)N[C@@H](CCCNC(=N)N)C(=O)N[C@@H](Cc1c[nH]cn1)C(N)=O` [compound 24, H4 (12-18) K16Hd K12A] (HELM PEPTIDE1{[ac].A.G.G.A.[O=C([C@H](CCCCCC(=O)[*:3])N[*:1])[*:2]].R.H.[am]}|CHEM1{[ON[*:1]]}$PEPTIDE1,CHEM1,6:R3-1:R1$$$V2.0), for which the IC50 in assay [1] (setting [9]) is 3.25 µM.

Turning to `CC(=O)N[C@@H](CCCCN)C(=O)NCC(=O)NCC(=O)N[C@@H](C)C(=O)N[C@@H](CCCCCC(=O)NO)C(=O)N[C@@H](C)C(=O)N[C@@H](Cc1c[nH]cn1)C(N)=O` [compound 25, H4 (12-18) K16Hd R17A] (HELM PEPTIDE1{[ac].K.G.G.A.[O=C([C@H](CCCCCC(=O)[*:3])N[*:1])[*:2]].A.H.[am]}|CHEM1{[ON[*:1]]}$PEPTIDE1,CHEM1,6:R3-1:R1$$$V2.0), the IC50 in assay [1] (setting [9]) was 0.429 µM.

As for `CC(=O)N[C@@H](CCCCN)C(=O)NCC(=O)NCC(=O)N[C@@H](C)C(=O)N[C@@H](CCCCCC(=O)NO)C(=O)N[C@@H](CCCNC(=N)N)C(=O)N[C@@H](C)C(N)=O` [compound 26, H4 (12-18) K16Hd H18A] (HELM PEPTIDE1{[ac].K.G.G.A.[O=C([C@H](CCCCCC(=O)[*:3])N[*:1])[*:2]].R.A.[am]}|CHEM1{[ON[*:1]]}$PEPTIDE1,CHEM1,6:R3-1:R1$$$V2.0), in assay [1] (setting [9]), the IC50 was found to be 1.15 µM. Turning to “H3(1–7)K4Ac (ARTK(Ac)QTA-NH2; UniProt P68431 2-8, looked up, fragment) [compound 1, acetyl-lysine-containing histone H3 tail substrate peptide, C-terminal amide]”, the “Initial Rate of HMR against histone peptides: Rate (% conversion min-1)” value (from here on “Initial Rate of HMR … (% conversion min-1)”) in assay [7] is reported as 0.18 +/- 0.009 % conversion min-1. Consider “H3(6–12)K9Ac (TARK(Ac)STG-NH2; UniProt P68431 7-13, looked up, fragment) [compound 2, acetyl-lysine-containing histone H3 tail substrate peptide, C-terminal amide]”, for which the “Initial Rate of HMR … (% conversion min-1)” value in assay [7] was 0.40 +/- 0.013 % conversion min-1. For “H3(11–17)K14Ac (TGGK(Ac)APR-NH2; UniProt P68431 12-18, looked up, fragment) [compound 3, acetyl-lysine-containing histone H3 tail substrate peptide, C-terminal amide]”, the “Initial Rate of HMR … (% conversion min-1)” value in assay [7] was 0.10 +/- 0.027 % conversion min-1. Consider “H3(23–29)K27Ac (KAARK(Ac)SA-NH2; UniProt P68431 24-30, looked up, fragment) [compound 4, acetyl-lysine-containing histone H3 tail substrate peptide, C-terminal amide]”, for which, in assay [7], the “Initial Rate of HMR … (% conversion min-1)” value is 0.79 +/-0.075 % conversion min-1.

In the case of H4(1–8)K5Ac [compound 5], the “Initial Rate of HMR … (% conversion min-1)” value in assay [7] is on record as 0.32 +/-0.065 % conversion min-1. Turning to “H4(4–10)K8Ac (GKGGK(Ac)GL-NH2; UniProt P62805 5-11, looked up, fragment) [compound 6, acetyl-lysine-containing histone H4 tail substrate peptide, C-terminal amide]”, the “Initial Rate of HMR … (% conversion min-1)” value in assay [7] is on record as 0.16 +/-0.016 % conversion min-1. As for “H4(9–15)K12Ac (GLGK(Ac)GGA-NH2; UniProt P62805 10-16, looked up, fragment) [compound 7, acetyl-lysine-containing histone H4 tail substrate peptide, C-terminal amide]”, the “Initial Rate of HMR … (% conversion min-1)” value in assay [7] was 0.03 +/-0.020 % conversion min-1. Besides, in assay [7] (30 min time course, table of initial rates), the Km entry was “Unstable”. As for “H4(12–18)K16Ac (KGGAK(Ac)RH-NH2; UniProt P62805 13-19, looked up, fragment) [compound 8, acetyl-lysine-containing histone H4 tail substrate peptide, C-terminal amide]”, the “Initial Rate of HMR … (% conversion min-1)” value in assay [7] is recorded as 1.08 +/-0.024 % conversion min-1.
